Patent US5422249A, “Process for the manufacture of thrombin inhibitors” (Ciba-Geigy Corporation, priority 1984, dated 1995)

How the values were obtained:
[1] = test system: other enzymes of the blood coagulation cascade; test: action on other enzymes/proteinases of the blood coagulation system; assay type: biochemical; conditions: desulphatohirudin
toxicity in rats = assay type: in vivo; conditions: dose 1 g/kg
[2] = tolerability (hypersensitivity, allergic reactions, harmlessness); conditions: in vivo
[3] = test system: thrombin from human plasma; test: thrombin-inhibition test with Chromozym TH; assay type: biochemical; conditions: for Thrombin inhibition (%): Experimental conditions No. 1, Table 1
Experimental: The cells (50 ml of the growing culture) are harvested and resuspended in 5 ml of a solution of 50 mM tris.HCl (pH 8.0) and 30 mM NaCl. Subsequently, the suspension is shaken with 5 g of cooled glass beads (diameter 0.5 mm), or by the addition of lysozyme (Boehringer), final concentration 1 mg/ml, at intervals during 30 to 45 minutes on a Multi-Tube Vortexer at high intensity. 0.5 ml of 2% acetic acid are added to 0.5 ml of the mixture which is then centrifuged at 12,000 revs/min for 20 minutes at 4° C. The supernatant solution is examined for hirudin activity (inhibition of thrombin). The thrombin-inhibition test is carried out as follows:
The test is based on the determination of the enzymatic removal of p-nitroaniline from the substrate Chromozym TH (tosyl-glycyl-prolyl-arginine-4-nitroanilide-acetate). […] The reaction time is 2 hours at 37° C. in the incubation chamber. For the test, 20 μl of the solution to be determined is diluted with 30 μl of filling buffer (0.2M tris.HCl pH 7.5, 1M NaCl, 100 μg/ml bovine serum albumin), and 20 μl of enzyme solution [10 mg of lyophilised thrombin from human plasma (Boehringer) dissolved in 1 ml of bidistilled water and diluted approximately 1:400 with the above filling buffer] and 150 μof substrate solution [[…] chromozym TH (Boehringer) dissolved in 4 ml of bidistilled water and diluted 1:15 with the above filling buffer] are added. All solutions are measured against a blank solution consisting of 70 μl of filling buffer (see above) and 150 μl of substrate solution and against an enzyme control solution consisting of 50 μl of filling buffer, 20 μl of enzyme solution and 150 μl of substrate solution. […] The thrombin inhibition (as a %) of the samples is calculated in accordance with the following formula: [formula]

[4] = test system: other enzymes of the blood coagulation cascade; conditions: natural hirudin; cited from earlier work
[5] = intravenously to dogs, even in high doses; cited from earlier work
[6] = test system: experimental thrombosis (induced either by stasis or by the injection of thrombin), endotoxin shock, DIC; conditions: cited from earlier work

| Substance | specificity to thrombin / interactions with other proteinases of the blood coagulation system [1] | active toxicity (toxicity in rats) | hypersensitivity reactions or allergic reactions [2] | thrombin inhibition ([3]; HPLC fraction from S. cerevisiae GRF18/pJDB207R/PH05-HIR, conditions as in Example 26a) | Thrombin inhibition (%) ([3]; RP-HPLC fractions) | Thrombin inhibition (%) ([3]; RP-HPLC fractions, listed as Fr 14) | Thrombin-inhibition % ([3]; RP-HPLC fractions, Experimental conditions No. 2, Table 2) | inhibition of other enzymes of the blood coagulation cascade [4] | effect on heart rate, respiration, blood pressure, thrombocyte count, fibrinogen and haemoglobin [5] | direct comparison tests with heparin ([6]; in vivo) | efficacy in experimental thrombosis, endotoxin shock and DIC ([6]; rats, pigs and dogs) |
| --- | --- | --- | --- | --- | --- | --- | --- | --- | --- | --- | --- |
| desulphatohirudin | completely specific to thrombin | no toxic effects | no hypersensitivity reactions or allergic reactions | 89.6% | 86% | 79% | 97.3 ± 2% |  |  |  |  |
| hirudin |  |  |  |  |  |  |  | not inhibited | No effect | superior to heparin | effective |
